Results on 22 molecules are retold here after ChEMBL document CHEMBL2434883, “Novel heterocyclic-fused pyrimidine derivatives: synthesis, molecular modeling and pharmacological screening” (Eur J Med Chem, 2013).

Converted amounts (≈) assume the structure as drawn.

In one experiment the test system is MCF7. Description: Cytotoxicity against human MCF7 cells after 48 hrs by SRB assay. The experiment is classed as functional, cell-based. The following applies: MCF7, 48 h. For orientation: The SRB assay estimates cell density from bound dye.
For the next experiment, the species on record is Homo sapiens. Description: Inhibition of VEGFR (unknown origin) using [33P]-ATP as substrate at 10 uM after 30 mins by scintillation counting analysis relative to control.
The target of experiment [1] is Proto-oncogene tyrosine-protein kinase Src (Homo sapiens) (UniProt P12931). Briefly: Inhibition of c-Src (unknown origin) using [33P]-ATP as substrate at 10 uM after 30 mins by scintillation counting analysis relative to control.
Chain of Proto-oncogene tyrosine-protein kinase Src (Homo sapiens) (P12931 2-536 limits assumed): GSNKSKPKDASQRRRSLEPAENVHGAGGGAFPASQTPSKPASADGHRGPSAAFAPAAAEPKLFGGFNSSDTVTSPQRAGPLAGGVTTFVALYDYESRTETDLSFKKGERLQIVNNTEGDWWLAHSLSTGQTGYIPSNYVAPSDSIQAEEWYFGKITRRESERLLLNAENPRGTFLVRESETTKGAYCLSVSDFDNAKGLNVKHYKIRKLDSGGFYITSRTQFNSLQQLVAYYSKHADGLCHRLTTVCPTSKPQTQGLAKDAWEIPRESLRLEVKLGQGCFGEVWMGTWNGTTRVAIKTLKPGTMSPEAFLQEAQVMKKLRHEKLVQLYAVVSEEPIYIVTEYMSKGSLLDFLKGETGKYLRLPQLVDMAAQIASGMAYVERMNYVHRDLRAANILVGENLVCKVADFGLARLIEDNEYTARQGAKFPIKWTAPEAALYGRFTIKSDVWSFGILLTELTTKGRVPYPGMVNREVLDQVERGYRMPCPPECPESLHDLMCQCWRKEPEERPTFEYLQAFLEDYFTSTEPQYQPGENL

The term IC50 denotes the concentration at which inhibition is half-maximal. Read a low IC50 as inhibition by little substance. `O=c1[nH]cnc2c1C1CCCN1C(=S)N2c1ccccc1` (stereo not given) had an IC50 with MCF7 of 20 µg/mL (≈ 67 µM).

The molecule `Nc1nc(=S)[nH]c2c1C1CCCCCN1C(=O)N2c1ccccc1` (stereo not given) showed an IC50 with MCF7 of 10.8 µg/mL (≈ 31.6 µM). Still for that read-out and setting: the value for `NNc1ncnc2c1C1CCCN1C(=O)N2c1ccccc1` (stereo not given) was 11 µg/mL (≈ 37.1 µM); that for `O=C1N(c2ccccc2)c2[nH]c(=S)sc(=O)c2C2CCCN12` (stereo not given) was 17 µg/mL (≈ 51.3 µM). `O=C1N(c2ccccc2)c2[nH]c(=S)nc(/N=C/c3ccc(Cl)cc3)c2C2CCCN12` (stereo not given) yielded an IC50 with MCF7 of 12.4 µg/mL (≈ 28.4 µM).

For `O=C1N(c2ccccc2)c2[nH]c(=S)nc(/N=C/c3ccc(Cl)cc3)c2C2CCCCCN12` (stereo not given), the IC50 in the experiment on MCF7 stood at 10.6 µg/mL (≈ 22.8 µM). Consider `Nc1nc(=S)[nH]c2c1C1CCCN1C(=S)N2c1ccccc1` (stereo not given), for which the midpoint of inhibition with MCF7, the IC50, lay at 22.8 µg/mL (≈ 69.2 µM). For orientation: inhibition means the share of the control response that was lost under treatment. The low end stands for a response near the control, the high end for a response far below the control. As for `O=C1N(c2ccccc2)c2nc[nH]c(=O)c2C2CCCCCN12` (stereo not given), the inhibition came to 3% in the experiment listed under Homo sapiens and 81% in experiment [1]. Also, in the experiment with MCF7, half-maximal inhibition (IC50) was put at 11.2 µg/mL (≈ 36.1 µM). `N#CC1=C(N2C(=O)CN(c3ccccc3)C2=O)N(c2ccccc2)C(=O)N2CCCC12` (stereo not given): half-maximal inhibition with MCF7 (IC50) required 18.6 µg/mL (≈ 45 µM). As for `N#CCC(=O)NC1=C(C#N)C2CCCN2C(=O)N1c1ccccc1` (stereo not given), the inhibition (in the experiment filed under Homo sapiens; in experiment [1]) was 0% throughout. Moreover, inhibition in the experiment on MCF7 was half-maximal at 12.8 µg/mL (≈ 39.8 µM) (IC50). In the case of `O=C1N(c2ccccc2)c2nc[nH]c(=O)c2C2CCCN12` (stereo not given), in the experiment on MCF7, the half-inhibitory concentration (IC50) is 14.8 µg/mL (≈ 52.4 µM).

On to `N#CC1=C(NC(=S)Nc2ccccc2)N(c2ccccc2)C(=O)N2CCCC12` (stereo not given), for which the half-maximal inhibitory concentration (IC50) in the experiment on MCF7 turned out to be 16.6 µg/mL (≈ 42.6 µM).

`O=C1N(c2ccccc2)c2[nH]c(=S)sc(=O)c2C2CCCCCN12` (stereo not given) displayed an IC50 in the experiment with MCF7 of 14 µg/mL (≈ 38.9 µM). On the same count and under the same terms, with `Cc1ccc(NC(=O)CNC2=C(C#N)C3CCCN3C(=O)N2c2ccccc2)cc1` (stereo not given) the figure was 21.6 µg/mL (≈ 53.8 µM). `N#CC1=C(NC(=O)Nc2ccccc2)N(c2ccccc2)C(=O)N2CCCC12` (stereo not given): in the experiment with MCF7, the half-inhibitory concentration (IC50) was determined as 19.8 µg/mL (≈ 53 µM). On to `N=c1c2c([nH]c(=O)n1-c1ccccc1)N(c1ccccc1)C(=O)N1CCCC21` (stereo not given), for which the inhibition in the experiment listed under Homo sapiens was determined as 11%; in experiment [1], 0%. It took 9.6 µg/mL (≈ 25.7 µM) to reach half-maximal inhibition with MCF7 (IC50).

Turning to `N#CC1=C(NC(=O)Nc2ccccc2)N(c2ccccc2)C(=S)N2CCCC12` (stereo not given), half-maximal inhibition in the experiment with MCF7 (IC50) was put at 14.2 µg/mL (≈ 36.5 µM). On the same count and under the same terms, with `Nc1nc(=S)[nH]c2c1C1CCCN1C(=O)N2c1ccccc1` (stereo not given) the figure was 13.6 µg/mL (≈ 43.4 µM). Same read-out and setting: the value for `Cc1ccc(NC(=O)CNC2=C(C#N)C3CCCN3C(=S)N2c2ccccc2)cc1` (stereo not given) was 12.8 µg/mL (≈ 30.7 µM); that for `O=c1sc(=S)[nH]c2c1C1CCCN1C(=S)N2c1ccccc1` (stereo not given) was 18.8 µg/mL (≈ 54.1 µM).

Consider `N#CC1=C(N2C(=O)C(=O)N(c3ccccc3)C2=O)N(c2ccccc2)C(=O)N2CCCC12` (stereo not given), for which the inhibition turned out to be 25% in the experiment filed under Homo sapiens and 45% in experiment [1]. This molecule also returned an IC50 with MCF7 of 10.8 µg/mL (≈ 25.3 µM). For the molecule `N#CC1=C(NC(=S)Nc2ccccc2)NC(=S)N2CCCC12` (stereo not given), the IC50 in the experiment with MCF7 was determined as 20.8 µg/mL (≈ 63.1 µM).
